Assay results taken from patent US8476298B2 (Exelixis, Inc., priority 2003, dated 2013).

Columns and labels:
[1] = molecular target: T1, c-Met (baculovirus expressed human c-Met kinase domain P948-S1343) (Homo sapiens, UniProt P08581); assay: c-Met Luciferase-Coupled Chemiluminescent Kinase assay (LCCA); assay type: biochemical;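 further: kinase activity read as percent ATP left after reaction, by luciferase-luciferin chemiluminescence, with 1 µM ATP and 1 µM poly-EY substrate, 2 h at ambient temperature, 10-point dose-response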
T1 construct: human c-Met kinase domain P948-S1343; host or cells: baculovirus expression
T1 sequence (P08581 1011-1343 limits assumed): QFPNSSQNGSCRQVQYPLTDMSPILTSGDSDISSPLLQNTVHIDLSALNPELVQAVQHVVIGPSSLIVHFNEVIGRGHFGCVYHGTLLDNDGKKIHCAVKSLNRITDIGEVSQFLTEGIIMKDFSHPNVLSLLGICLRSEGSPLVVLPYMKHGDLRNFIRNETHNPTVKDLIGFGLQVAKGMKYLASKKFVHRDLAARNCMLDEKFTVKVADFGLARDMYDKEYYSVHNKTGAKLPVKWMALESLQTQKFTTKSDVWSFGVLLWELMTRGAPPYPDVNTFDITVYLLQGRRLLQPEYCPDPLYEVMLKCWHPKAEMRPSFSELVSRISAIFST

[2] = molecular target: T2, KDR (baculovirus expressed human KDR kinase domain D807-V1356) (Homo sapiens, UniProt P35968); assay: biochemical;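 further: Luciferase-coupled chemiluminescent kinase assay, activity read as percent ATP left after 4 h reaction at ambient temperature, ATP near KM, 10-point dose-response in 384-well plates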
T2 construct: human KDR kinase domain D807-V1356; host or cells: baculovirus expression
T2 sequence (P35968 807-1356): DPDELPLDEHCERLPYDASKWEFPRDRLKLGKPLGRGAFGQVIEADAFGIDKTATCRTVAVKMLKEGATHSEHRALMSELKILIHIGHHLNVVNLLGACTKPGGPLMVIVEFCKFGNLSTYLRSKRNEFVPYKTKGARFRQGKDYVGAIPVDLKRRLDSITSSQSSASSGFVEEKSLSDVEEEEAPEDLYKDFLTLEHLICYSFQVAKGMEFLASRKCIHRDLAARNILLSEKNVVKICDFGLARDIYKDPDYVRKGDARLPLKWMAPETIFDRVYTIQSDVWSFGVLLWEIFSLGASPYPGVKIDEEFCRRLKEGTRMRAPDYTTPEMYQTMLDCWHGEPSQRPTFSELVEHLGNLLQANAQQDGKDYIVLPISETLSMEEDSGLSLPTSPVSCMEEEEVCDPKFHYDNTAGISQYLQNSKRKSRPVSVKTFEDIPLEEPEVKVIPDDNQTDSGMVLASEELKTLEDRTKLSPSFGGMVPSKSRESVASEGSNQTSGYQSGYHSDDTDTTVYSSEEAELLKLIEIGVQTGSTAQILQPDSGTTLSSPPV

[3] = molecular target: T3, Flt-4 (baculovirus expressed human Flt-4 kinase domain D725-R1298) (Homo sapiens, UniProt P35916); assay: flt-4 Alphascreen Tyrosine Kinase assay; assay type: biochemical; conditions: read-out: flt4 IC50;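 further: AlphaScreen chemiluminescence read-out of biotinylated poly(Glu,Tyr) 4:1 phosphorylation via streptavidin donor and PY100 anti-phosphotyrosine acceptor beads, ATP near KM, 1 hr kinase reaction, 10-point dose-response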
T3 construct: human Flt-4 kinase domain D725-R1298; host or cells: baculovirus expression
T3 sequence (P35916 725-1298 isoform P35916-1): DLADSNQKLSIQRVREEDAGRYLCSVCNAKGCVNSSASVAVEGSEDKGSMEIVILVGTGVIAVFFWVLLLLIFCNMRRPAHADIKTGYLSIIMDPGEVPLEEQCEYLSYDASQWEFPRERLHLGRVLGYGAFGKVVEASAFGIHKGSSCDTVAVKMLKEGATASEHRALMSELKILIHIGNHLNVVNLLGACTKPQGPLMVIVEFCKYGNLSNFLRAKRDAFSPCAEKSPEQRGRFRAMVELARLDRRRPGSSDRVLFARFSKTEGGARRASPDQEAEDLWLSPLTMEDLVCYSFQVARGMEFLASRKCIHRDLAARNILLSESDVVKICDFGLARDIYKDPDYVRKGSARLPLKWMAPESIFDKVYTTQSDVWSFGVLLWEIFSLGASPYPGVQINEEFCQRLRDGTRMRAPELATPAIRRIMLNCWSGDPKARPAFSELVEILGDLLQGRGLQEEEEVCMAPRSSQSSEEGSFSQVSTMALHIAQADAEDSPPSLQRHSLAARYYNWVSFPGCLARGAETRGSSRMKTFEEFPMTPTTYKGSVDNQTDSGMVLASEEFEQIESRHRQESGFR

[4] = molecular target: T4, Flt-3 (baculovirus expressed human Flt-3 kinase domain R571-S993) (Homo sapiens, UniProt P36888); assay: biochemical; conditions: read-out: flt3 IC50;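 further: Luciferase-coupled chemiluminescent kinase assay, activity read as percent ATP left after a 3 h reaction at room temperature, ATP near KM, 10-point dose-response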
T4 construct: human Flt-3 kinase domain R571-S993; host or cells: baculovirus expression
T4 sequence (P36888 571-993): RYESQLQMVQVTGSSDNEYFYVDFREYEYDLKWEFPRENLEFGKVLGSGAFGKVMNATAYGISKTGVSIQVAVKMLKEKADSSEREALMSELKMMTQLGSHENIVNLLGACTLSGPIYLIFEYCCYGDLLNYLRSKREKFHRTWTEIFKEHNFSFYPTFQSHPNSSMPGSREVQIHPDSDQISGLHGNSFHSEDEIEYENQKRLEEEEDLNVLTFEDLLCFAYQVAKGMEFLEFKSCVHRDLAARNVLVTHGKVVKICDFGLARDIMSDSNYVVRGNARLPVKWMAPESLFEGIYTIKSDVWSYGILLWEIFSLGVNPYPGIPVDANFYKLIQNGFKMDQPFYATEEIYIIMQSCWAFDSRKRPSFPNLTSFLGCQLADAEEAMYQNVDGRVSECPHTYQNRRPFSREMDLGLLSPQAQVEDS

c-Kit kinase = c-Kit kinase (Homo sapiens, UniProt P10721); assay: c-Kit AlphaScreen kinase assay; assay type: biochemical;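 further: c-Kit kinase phosphorylating biotinylated poly(Glu,Tyr), ATP near its KM, 1 h reaction at ambient temperature, AlphaScreen chemiluminescence with streptavidin donor and anti-phosphotyrosine acceptor beads, 10-point inhibitor titration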
Sequence of c-Kit kinase (P10721 26-976): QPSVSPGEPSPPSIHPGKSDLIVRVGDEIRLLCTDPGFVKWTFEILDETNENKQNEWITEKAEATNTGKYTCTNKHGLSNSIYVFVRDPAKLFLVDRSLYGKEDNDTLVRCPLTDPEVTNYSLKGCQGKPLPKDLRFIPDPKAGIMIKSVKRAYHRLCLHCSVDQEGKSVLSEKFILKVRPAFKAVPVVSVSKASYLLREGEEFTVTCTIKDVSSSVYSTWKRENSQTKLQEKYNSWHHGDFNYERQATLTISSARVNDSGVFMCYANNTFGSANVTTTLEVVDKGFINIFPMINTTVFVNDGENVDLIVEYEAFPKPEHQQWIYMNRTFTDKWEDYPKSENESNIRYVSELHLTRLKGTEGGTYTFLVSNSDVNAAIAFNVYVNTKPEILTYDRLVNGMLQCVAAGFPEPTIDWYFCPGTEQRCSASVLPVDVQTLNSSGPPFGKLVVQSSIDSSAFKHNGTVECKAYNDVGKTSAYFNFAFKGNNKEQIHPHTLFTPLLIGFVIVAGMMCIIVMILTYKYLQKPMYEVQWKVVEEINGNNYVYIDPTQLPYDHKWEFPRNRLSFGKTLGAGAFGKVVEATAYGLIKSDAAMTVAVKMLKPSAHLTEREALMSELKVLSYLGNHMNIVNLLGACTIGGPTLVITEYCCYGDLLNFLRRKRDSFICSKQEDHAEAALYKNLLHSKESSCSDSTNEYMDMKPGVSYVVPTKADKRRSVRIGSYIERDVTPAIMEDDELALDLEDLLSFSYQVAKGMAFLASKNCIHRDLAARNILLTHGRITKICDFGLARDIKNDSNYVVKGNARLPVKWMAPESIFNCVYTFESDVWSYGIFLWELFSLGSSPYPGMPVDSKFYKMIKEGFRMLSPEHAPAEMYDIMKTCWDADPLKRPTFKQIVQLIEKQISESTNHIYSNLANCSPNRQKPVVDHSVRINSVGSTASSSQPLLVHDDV

| SMILES | IC50 [1] [nM] | IC50 [2] [nM] | IC50 [3] [nM] | IC50 [4] [nM] | IC50 (c-Kit kinase) [nM] |
| --- | --- | --- | --- | --- | --- |
| COc1cc2c(Oc3cc(C)c(NC(=O)C4(C(=O)Nc5ccc(F)cc5)CC4)cc3F)ccnc2cc1OCCCN1CCOCC1 [Example 326, N-[5-fluoro-2-methyl-4-({6-(methyloxy)-7-[(3-morpholin-4-ylpropyl)oxy]quinolin-4-yl}oxy)phenyl]-N′-(4-fluorophenyl)cyclopropane-1,1-dicarboxamide] | < 50 | < 50 | 50 to 500 | 50 to 500 | 50 to 500 |
| COc1cc2nccc(Oc3c(F)cc(NC(=O)C4(C(=O)Nc5ccc(F)cc5)CC4)c(F)c3F)c2cc1OC [Example 327, N-(4-{[6,7-bis(methyloxy)quinolin-4-yl]oxy}-2,3,5-trifluorophenyl)-N′-(4-fluorophenyl)cyclopropane-1,1-dicarboxamide] | < 50 | < 50 | 50 to 500 | 50 to 500 | 50 to 500 |
| COc1cc2nccc(Oc3cc(C)c(NC(=O)C4(C(=O)Nc5ccc(F)cc5)CC4)cc3F)c2cc1OC [Example 328, N-(4-{[6,7-bis(methyloxy)quinolin-4-yl]oxy}-5-fluoro-2-methylphenyl)-N′-(4-fluorophenyl)cyclopropane-1,1-dicarboxamide] | < 50 | 50 to 500 | 500 to 5000 | 500 to 5000 | 50 to 500 |
| COc1cc2nccc(Oc3cc(Cl)c(NC(=O)C4(C(=O)Nc5ccc(F)cc5)CC4)cc3C)c2cc1OC [Example 329, N-(4-{[6,7-bis(methyloxy)quinolin-4-yl]oxy}-2-chloro-5-methylphenyl)-N′-(4-fluorophenyl)cyclopropane-1,1-dicarboxamide] | < 50 | 50 to 500 | 50 to 500 | 500 to 5000 | 50 to 500 |
| COc1cc2c(Oc3ccc(NC(=O)C4(C(=O)Nc5ccc(F)cc5)CC4)c(C)c3)ccnc2cc1OCCCN1CCOCC1 [Example 331, N-(4-fluorophenyl)-N′-[2-methyl-4-({6-(methyloxy)-7-[(3-morpholin-4-ylpropyl)oxy]quinolin-4-yl}oxy)phenyl]cyclopropane-1,1-dicarboxamide] | < 50 | < 50 | < 50 | 50 to 500 | < 50 |
| CCN(CC)CCCOc1cc2nccc(Oc3ccc(NC(=O)C4(C(=O)Nc5ccc(F)cc5)CC4)cc3F)c2cc1OC [Example 336, N-(4-{[7-{[3-(diethylamino)propyl]oxy}-6-(methyloxy)quinolin-4-yl]oxy}-3-fluorophenyl)-N′-(4-fluorophenyl)cyclopropane-1,1-dicarboxamide] | < 50 | < 50 | < 50 | < 50 | < 50 |
| COc1cc2nccc(Oc3cc(Cl)c(NC(=O)C4(C(=O)Nc5ccc(F)cc5)CC4)cc3F)c2cc1OC [Example 337, N-(4-{[6,7-bis(methyloxy)quinolin-4-yl]oxy}-2-chloro-5-fluorophenyl)-N′-(4-fluorophenyl)cyclopropane-1,1-dicarboxamide] | < 50 | 50 to 500 | 500 to 5000 | 500 to 5000 | 50 to 500 |
| COc1cc2c(Oc3ccc(NC(=O)[C@@]4(C(=O)Nc5ccc(F)cc5)C[C@H]4C)cc3F)ccnc2cc1OCCCN1CCOCC1 [Example 342, (1S,2R)-N-[3-fluoro-4-({6-(methyloxy)-7-[(3-morpholin-4-ylpropyl)oxy]quinolin-4-yl}oxy)phenyl]-N′-(4-fluorophenyl)-2-methylcyclopropane-1,1-dicarboxamide] | < 50 | < 50 | < 50 | < 50 | 50 to 500 |
| COc1cc2c(Oc3ccc(NC(=O)[C@]4(C(=O)Nc5ccc(F)cc5)C[C@H]4C)cc3F)ccnc2cc1OCCCN1CCOCC1 [Example 343, (1R,2R)-N-[3-fluoro-4-({6-(methyloxy)-7-[(3-morpholin-4-ylpropyl)oxy]quinolin-4-yl}oxy)phenyl]-N′-(4-fluorophenyl)-2-methylcyclopropane-1,1-dicarboxamide] | < 50 | < 50 | < 50 | < 50 | < 50 |

More lines, now with the values ahead:

| IC50 [1] [nM] | IC50 [2] [nM] | IC50 [3] [nM] | IC50 [4] [nM] | IC50 (c-Kit kinase) [nM] | SMILES |
| --- | --- | --- | --- | --- | --- |
| < 50 | < 50 | < 50 | < 50 | 50 to 500 | COc1cc2ncnc(Oc3ccc(NC(=O)C4(C(=O)Nc5ccc(F)cc5)CC4)cc3F)c2cc1OCC1CCN(C)CC1 [Example 325, N-{3-fluoro-4-[(7-(methyloxy)-6-{[(1-methylpiperidin-4-yl)methyl]oxy}quinazolin-4-yl)oxy]phenyl}-N′-(4-fluorophenyl)cyclopropane-1,1-dicarboxamide] |
| < 50 | < 50 | < 50 | < 50 | < 50 | COc1cc2nccc(Oc3ccc(NC(=O)C4(C(=O)Nc5ccc(F)cc5)CC4)cc3F)c2cc1O [Example 330, N-(3-fluoro-4-{[6-hydroxy-7-(methyloxy)quinolin-4-yl]oxy}phenyl)-N′-(4-fluorophenyl)cyclopropane-1,1-dicarboxamide] |
| < 50 | < 50 | < 50 | < 50 | < 50 | COc1cc2c(Oc3ccc(NC(=O)C4(C(=O)Nc5ccc(F)cc5)CC4)cc3F)ccnc2cc1OCCCN1CCNCC1 [Example 332, N-[3-fluoro-4-({6-(methyloxy)-7-[(3-piperazin-1-ylpropyl)oxy]quinolin-4-yl}oxy)phenyl]-N′-(4-fluorophenyl)cyclopropane-1,1-dicarboxamide] |
| < 50 | < 50 | < 50 | < 50 | < 50 | COc1cc2c(Oc3ccc(NC(=O)C4(C(=O)Nc5ccc(F)cc5)CC4)cc3F)ccnc2cc1OCCCN1CCN(C)CC1 [Example 333, N-{3-fluoro-4-[(6-(methyloxy)-7-{[3-(4-methylpiperazin-1-yl)propyl]oxy}quinolin-4-yl)oxy]phenyl}-N′-(4-fluorophenyl)cyclopropane-1,1-dicarboxamide] |
| < 50 | < 50 | < 50 | < 50 | < 50 | COc1cc2c(Oc3ccc(NC(=O)C4(C(=O)Nc5ccc(F)cc5)CC4)cc3F)ccnc2cc1OCC1CCN(C)CC1 [Example 334, N-{3-fluoro-4-[(6-(methyloxy)-7-{[(1-methylpiperidin-4-yl)methyl]oxy}quinolin-4-yl)oxy]phenyl}-N′-(4-fluorophenyl)cyclopropane-1,1-dicarboxamide] |
